Assays:
[1] = tested on: CFT1 cells; assay: in vitro transfection of CFT1 cells with pCF1-βGal plasmid by cationic liposomes (DC-Chol analogue/DOPE), β-galactosidase expression; assay type: cell-based; settings: for rank of DC-Chol analogues for in vitro gene delivery: most effective triamine, tetramine and pentamine; for gene delivery efficiency in vitro over and above DC-Chol/DOPE liposomes: pCF1-βGal plasmid, liposomes with DOPE, relative to DC-Chol/DOPE liposomes formulated in a similar way (FIG. 24)
Procedure: FIG. 23 is an example of in vitro optimisation of pCF1-βGal plasmid transfection of CFT1 cells in vitro using complexes of pCF1-βGal and cationic liposomes formulated from DC-Chol analogue 8f′ and DOPE 2 (1:1) molar ratio. CFT1 cells were transfected with an array of different cationic liposome and plasmid ratios in a 96-well plate. The extent of transfection in each well was determined after 2 days by measuring the levels of β-galactosidase expression. Plasmid DNA concentration is expressed as the concentration of nucleotides assuming an average nucleotide FWt of 330. Cationic liposome concentration is expressed in terms of the concentration of the constituent DC-Chol analogue 8f′ alone.
FIG. 24 presents rank order of DC-Chol polyamine analogues transfecting CFT1 cells in vitro with the pCF1-βGal plasmid. Gene delivery activity is expressed as a proportion of the activity measured with standard liposomes containing DC-Chol 1 and DOPE 2. The data shown are the averages of four separate experiments, each performed in triplicate.
The ratios in curved brackets refer to the DC-Chol analogue:DOPE 2 molar ratio used to formulate the liposomes. The numbers in square brackets refer to compound serial numbers. Where appropiate DC-Chol analogue name abbreviations are also included (see experimental).
(§1) The ability of cationic liposomes containing the different DC-Chol polyamine analogues to mediate gene delivery was analysed both in vitro and in vivo. Cationic liposomes were formulated by hydrating a dried lipid film, containing DC-Cholanalogue and DOPE 2 in an appropriate molar ratio of either 1:0, 1:1, 1:2 or 2:1 respectively. and vortex mixing.^[32] Cationic liposome/plasmid DNA complexes were then prepared by adding appropriately diluted cationic liposome suspensions into equal volumes of aqueous plasmid DNA solutions at 30° C. and allowing the mixture to equilibrate to ambient temperature over 15 min.^[32] In vitro studies were then performed with immortalised cystic fibrosis airway epithelial (CFT1) cells followed by in vivo studies in which cationic liposome/plasmid DNA complexes were instilled intranasally into the lungs of female BALB/c mice.^[32] Typically, cationic liposome gene delivery was first optimised in vitro so as to establish the best molar ratio of cationic liposome to plasmid DNA (DNA concentration was expressed as nucleotide concentration) as well as the best absolute quantities of both, as illustrated (FIG. 23). This optimised combination was then tested in vivo. The in vitro results are shown (FIG. 24). […] The analogues were 8a′, 8b′, 8e′, 8f′, 13a′ and 17b′, the first four being triamines, the fifth a tetramine and the sixth a pentamine. With one exception, 8f′, these polyamine analogues contain inter-nitrogen methylene group spacings not normally associated with the natural polyamines spermidine 18′ (see for example FIG. 29), spermine 19′ (see for example FIG. 29) and pentamine 20′ (see for example FIG. 29) upon which these structures are based. In vivo (FIG. 25), the best DC-Chol analogues were 13c′, 13f′ and especially 17a′. Both 17a′ and 13c′ also contain unnatural methylene group spacings.
For the in vitro and in vivo tests, a dried lipid film containing the given DC-Chol analogue and DOPE 2 (in either a 1:0, 1:1, 1:2 or 2:1 respective molar ratio), was hydrated for 10 min in sterile pyrogen-free water and then liposomes were produced by 2 min vortex mixing. The average diameter was between 200-400 nm.^[32] Cationic liposomes containing DC-Chol 1 and DOPE 2 were formulated in the same way described previously.^[24, 36]
Cationic liposome/plasmid DNA complexes were then prepared as follows.
Both cationic liposome suspensions and DNA (either pCF1-βGal plasmid expressing β-galactosidase or pCF1-CAT expressing chloramphenicol acetyl transferase)^[32] solutions were separately pre-incubated for 5 min at 30° C., before being diluted to the appropriate final concentrations and then combined. […]

[2] = tested on: lungs of female BALB/c mice; assay: in vivo transfection of mouse lung with pCF1-CAT plasmid by intranasally instilled cationic liposome/DNA complexes, CAT activity in lung homogenates; settings: for rank of DC-Chol analogues for in vivo gene delivery: female BALB/c mice lung, pCF1-CAT plasmid, optimal formulation, CAT activity after 2 days (FIG. 25)
Procedure: FIG. 25 presents the rank order of DC-Chol polyamine analogues transfecting the lungs of female BALB/c mice with the pCF1-CAT plasmid. Mice were instilled with a solution of the plasmid (4 mM nucleotide concentration) and the optimal quantity and ratio of cationic liposome, in a total volume of 100 μl. Gene delivery activity was determined as a function of chloramphenicol acetyl transferase activity in lung homogenates after 2 days.
Data points were from separate experiments with each optimal formulation tested in 4 BALB/c mice. The ratios in curved brackets refer to the DC-Chol analogue:DOPE 2 molar ratio. The numbers in square brackets refer to compound serial numbers. Where appropiate DC-Chol analogue name abbreviations are also included (see experimental).
as §1, with “spacings. […]” for “spacings.”

[3] = reported; cited from earlier work
[4] = mouse lung, pCF1-CAT plasmid (FIG. 25)

| Compound | rank of DC-Chol analogues for in vitro gene delivery [1] | gene delivery efficiency in vitro over and above DC-Chol/DOPE liposomes [1] | rank of DC-Chol analogues for in vivo gene delivery [2] | further results |
| --- | --- | --- | --- | --- |
| CC(C)CCCC(C)C1CCC2C3CC=C4CC(OC(=O)NCCCNCCCN)CCC4(C)C3CCC12C (centres unmarked) [8e′, 4-aza-N′-cholesteryloxycarbonyl-1,7-heptanediamine] | most effective | significant improvements | – | – |
| CC(C)CCC[C@@H](C)[C@H]1CC[C@H]2[C@@H]3CC=C4C[C@@H](OC(=O)NCCNCCCNCCN)CC[C@]4(C)[C@H]3CC[C@]12C [13a′, N′-cholesteryloxy-carbonyl-3,7-diaza-1,9-nonanediamine] | most effective | significant improvements | – | – |
| CC(C)CCCC(C)C1CCC2C3CC=C4CC(OC(=O)NCCCNCCCCNCCCN)CCC4(C)C3CCC12C (centres unmarked) [13f′, N^1-cholesteryloxy-carbonyl-4,9-diaza-1,12-dodecanediamine] | – | – | best and most effective | – |
| CCCCCCCCCCCCOCC(C[N+](C)(C)CCCN)OCCCCCCCCCCCC.[Br-] (centres unmarked) [GAP-DLRIE, (B1)-N-(3-aminopropyl)-N,N-dimethyl-2,3-bis-(dodecyloxy)-1-propanaminium bromide] | – | – | – | in vivo efficacy relative to plasmid DNA alone [3]: about 100 fold |
| N^10-cholesteryloxycarbonyl-4,8,13-triaza-1,16-hexadecanediamine [17b′] | most effective | significant improvements | – | – |
| N^15-cholesteryloxycarbonyl-3,7,12-triaza-1,15-pentadecanediamine [17a′] | – | – | best and most effective | effectiveness in mouse lung relative to DC-Chol 1 [2, 4]: about 100 fold; effectiveness in mouse lung relative to plasmid DNA alone [2, 4]: approx 500 fold |

— patent US6756054B1, “Polycationic sterol derivatives as transfection agents” (IC-VEC Limited, priority 1996, dated 2004)
